Experimental data from PubChem BioAssay (NCI).
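1) Cells in 96-well plates. 2) Compound, 48 h, 5 concentrations. 3) Linear interpolation between surrounding doses. 4) Unreached endpoint = highest concentration. GI50: concentration for 50% inhibition of growth. TGI denotes the concentration required for complete inhibition of growth.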

How the values were obtained:
Assay in all cases: inhibition of tumour cell growth, NCI panel, 48 h
SF-295 CNS = test system: SF-295 CNS
SNB-75 CNS = test system: SNB-75 CNS
TK-10 renal = test system: TK-10 renal
KM12 colon = test system: KM12 colon
SN12C renal = test system: SN12C renal
MALME-3M melanoma = test system: MALME-3M melanoma
CCRF-CEM leukemia = test system: CCRF-CEM leukemia
SK-MEL-5 melanoma = test system: SK-MEL-5 melanoma
HOP-92 NSCLC = test system: HOP-92 NSCLC
UACC-257 melanoma = test system: UACC-257 melanoma
LOX IMVI melanoma = test system: LOX IMVI melanoma
MDA-MB-435 = test system: MDA-MB-435
U251 CNS = test system: U251 CNS
RPMI-8226 leukemia = test system: RPMI-8226 leukemia
SK-MEL-28 melanoma = test system: SK-MEL-28 melanoma
MDA-MB-231 breast = test system: MDA-MB-231 breast
NCI-H460 lung = test system: NCI-H460 lung
A498 renal = test system: A498 renal
SK-MEL-2 melanoma = test system: SK-MEL-2 melanoma
COLO 205 colon = test system: COLO 205 colon
OVCAR-4 ovarian = test system: OVCAR-4 ovarian
OVCAR-5 ovarian = test system: OVCAR-5 ovarian
PC-3 prostate = test system: PC-3 prostate
HOP-62 NSCLC = test system: HOP-62 NSCLC
OVCAR-8 ovarian = test system: OVCAR-8 ovarian
HCT-15 colon = test system: HCT-15 colon
HS 578T breast = test system: HS 578T breast
M14 melanoma = test system: M14 melanoma
EKVX NSCLC = test system: EKVX NSCLC

## COc1ccc(/C=C(\C#N)c2ccc(OC)cc2)cc1
SF-295 CNS
  GI50: 8.01 µM
  TGI: > 100 µM
SNB-75 CNS
  GI50: 87.6 µM
  TGI: > 100 µM
TK-10 renal
  GI50: > 100 µM
  TGI: > 100 µM
KM12 colon
  GI50: 3.87 µM
  TGI: > 100 µM
SN12C renal
  GI50: 81.7 µM
  TGI: > 100 µM
MALME-3M melanoma
  GI50: > 100 µM
  TGI: > 100 µM
CCRF-CEM leukemia
  GI50: 9.47 µM
  TGI: > 100 µM
SK-MEL-5 melanoma
  GI50: 4.85 µM
  TGI: > 100 µM
HOP-92 NSCLC
  GI50: 23.5 µM
  TGI: > 100 µM
UACC-257 melanoma
  GI50: > 100 µM
  TGI: > 100 µM
LOX IMVI melanoma
  GI50: 13.3 µM
  TGI: > 100 µM
MDA-MB-435
  GI50: 0.563 µM
  TGI: 18.4 µM
U251 CNS
  GI50: 20.6 µM
  TGI: > 100 µM
RPMI-8226 leukemia
  GI50: 9.48 µM
  TGI: > 100 µM
SK-MEL-28 melanoma
  GI50: > 100 µM
  TGI: > 100 µM
MDA-MB-231 breast
  GI50: 33.6 µM
  TGI: > 100 µM
NCI-H460 lung
  GI50: 7.31 µM
  TGI: > 100 µM
A498 renal
  GI50: > 100 µM
  TGI: > 100 µM
SK-MEL-2 melanoma
  GI50: > 100 µM
  TGI: > 100 µM
COLO 205 colon
  GI50: 21.1 µM
  TGI: > 100 µM
OVCAR-4 ovarian
  GI50: 27.4 µM
  TGI: > 100 µM
OVCAR-5 ovarian
  GI50: 62.3 µM
  TGI: > 100 µM
PC-3 prostate
  GI50: 30 µM
  TGI: > 100 µM
HOP-62 NSCLC
  GI50: 69.9 µM
  TGI: > 100 µM
OVCAR-8 ovarian
  GI50: 91.8 µM
  TGI: > 100 µM
HCT-15 colon
  GI50: 4.56 µM
  TGI: > 100 µM
HS 578T breast
  GI50: 82.2 µM
  TGI: > 100 µM
M14 melanoma
  GI50: 8.18 µM
  TGI: > 100 µM
EKVX NSCLC
  GI50: 14.5 µM
  TGI: > 100 µM
